Measured values published in publication PMC9596378, “Discovery and molecular basis of subtype-selective cyclophilin inhibitors” (Nature Chemical Biology, 2022).

Columns and labels:
CypD K118E/R124A = biological target: T1, CypD K118E/R124A (Homo sapiens, UniProt P30405, K118E/R124A); test: Chymotrypsin coupled prolyl-isomerase assay; format: biochemical
T1 construct: made in house; host or cells: E. coli BL21(DE3)
Outline: (§1)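 Cyclophilin (5 nM final) in 25 mM HEPES pH 7.3, 100 mM NaCl, 0.01% Triton X-100 was preincubated with compound (0.25% DMSO) 5 min at 2–3 °C, then with 25 µM α-chymotrypsin 5 min. Suc-AAPF-AMC (5 µM, in LiCl/trifluoroethanol) started the reaction; AMC fluorescence read every 1 s for 330 s.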

Cyp40 = Cyp40 (Homo sapiens, UniProt Q08752); test: Competition anisotropy binding assay with A26-Fl; parameters: PPID (UniProtKB Entry Q08752: residues 1–183); made in house; host or cells: E. coli BL21(DE3); conditions: FP competition with 0.5 nM A26-Fl, 24 h
Chain of Cyp40 (Q08752 1-183): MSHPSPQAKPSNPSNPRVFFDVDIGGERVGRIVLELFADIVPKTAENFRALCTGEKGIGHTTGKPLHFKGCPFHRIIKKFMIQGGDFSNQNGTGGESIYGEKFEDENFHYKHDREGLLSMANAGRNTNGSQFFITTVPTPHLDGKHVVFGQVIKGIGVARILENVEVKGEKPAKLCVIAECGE
Experimental: (§2) Adapted from previous work[52], cyclophilin in assay buffer (25 mM HEPES pH 8.0, 100 mM NaCl, 0.01% Triton X-100) at a pre-determined concentration from Supplementary Table 6 was incubated with 0.5 nM A26-Fl for 10 min at room temperature in a flat-bottom black untreated 96-well plate (Corning). Competitor macrocycle was then added to each well and incubated for 24 h. Final assay volume was 100 µL with 0.25% DMSO. Fluorescence anisotropy was then measured using a Tecan Spark plate reader using 492 nm/523 nm excitation/emission settings.

CypE K217A [1] = biological target: T2, CypE K217A (Homo sapiens, UniProt Q9UNP9, K217A); test: Chymotrypsin coupled prolyl-isomerase assay; format: biochemical
T2 construct: Lane 5- GS-CypE K217A (131-301);; His6 tag with thrombin site (pET28a LIC); GS remnant stays on the N-terminus (N, cleaved yes); host or cells: E. coli BL21(DE3)
T2 sequence (Q9UNP9 131-301 K217A): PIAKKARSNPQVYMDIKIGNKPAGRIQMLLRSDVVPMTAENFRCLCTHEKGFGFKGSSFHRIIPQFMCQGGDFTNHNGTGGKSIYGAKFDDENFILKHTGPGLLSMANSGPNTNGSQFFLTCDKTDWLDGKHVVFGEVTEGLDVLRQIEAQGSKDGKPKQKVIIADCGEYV
Outline: as §1

CypE K212A = biological target: T3, CypE K212A (Homo sapiens, UniProt Q9UNP9, K212A); test: Competition anisotropy binding assay with A26-Fl; conditions: FP competition with 0.5 nM A26-Fl, 24 h
T3 construct: Lane 4- GS-CypE K212A (131-301);; His6 tag with thrombin site (pET28a LIC); GS remnant stays on the N-terminus (N, cleaved yes); host or cells: E. coli BL21(DE3)
T3 sequence (Q9UNP9 131-301 K212A): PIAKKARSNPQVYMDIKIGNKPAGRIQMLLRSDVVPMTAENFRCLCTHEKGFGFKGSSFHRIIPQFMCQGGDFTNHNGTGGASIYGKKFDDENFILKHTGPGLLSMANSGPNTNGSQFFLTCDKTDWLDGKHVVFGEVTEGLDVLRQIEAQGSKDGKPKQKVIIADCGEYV
Experimental: as §2

CypA = biological target: T4, CypA (Homo sapiens, UniProt P62937); test: Competition anisotropy binding assay with A26-Fl; conditions: FP competition with 0.5 nM A26-Fl, 24 h
T4 construct: PPIA (UniProtKB Entry P62937: residues 1–165); made in house; host or cells: E. coli BL21(DE3)
T4 sequence (P62937 whole entry, the tested form may be a part): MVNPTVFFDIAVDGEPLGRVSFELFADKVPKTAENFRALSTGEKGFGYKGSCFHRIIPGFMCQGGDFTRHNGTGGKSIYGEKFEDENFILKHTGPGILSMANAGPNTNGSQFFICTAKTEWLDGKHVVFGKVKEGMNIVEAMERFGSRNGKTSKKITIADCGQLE
Experimental: as §2

CypE K218A = biological target: T5, CypE K218A (Homo sapiens, UniProt Q9UNP9, K218A); test: Competition anisotropy binding assay with A26-Fl; conditions: FP competition with 0.5 nM A26-Fl, 24 h
T5 construct: Lane 6- GS-CypE K218A (131-301);; His6 tag with thrombin site (pET28a LIC); GS remnant stays on the N-terminus (N, cleaved yes); host or cells: E. coli BL21(DE3)
T5 sequence (Q9UNP9 131-301 K218A): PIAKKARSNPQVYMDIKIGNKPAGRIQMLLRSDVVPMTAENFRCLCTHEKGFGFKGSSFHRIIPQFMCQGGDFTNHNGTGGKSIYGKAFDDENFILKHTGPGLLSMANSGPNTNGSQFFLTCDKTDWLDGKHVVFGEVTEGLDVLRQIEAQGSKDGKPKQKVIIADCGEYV
Experimental: as §2

PPIL3 = biological target: T6, PPIL3 (Homo sapiens, UniProt Q9H2H8); test: Competition anisotropy binding assay with A26-Fl; conditions: FP competition with 0.5 nM A26-Fl, 24 h
T6 construct: PPIL3 (UniProtKB Entry Q9H2H8: residues 1–161); His6 tag with TEV site (2BT vector); SNA remnant stays on the N-terminus (N, cleaved yes); made in house; host or cells: E. coli BL21(DE3)
T6 sequence (Q9H2H8 whole entry, the tested form may be a part): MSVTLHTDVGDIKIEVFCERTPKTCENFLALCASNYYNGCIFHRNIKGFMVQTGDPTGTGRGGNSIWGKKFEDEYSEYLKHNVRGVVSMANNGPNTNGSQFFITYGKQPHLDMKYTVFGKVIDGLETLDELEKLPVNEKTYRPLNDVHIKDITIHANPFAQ
Experimental: as §2

PPIL1 = biological target: T7, PPIL1 (Homo sapiens, UniProt Q9Y3C6); test: Competition anisotropy binding assay with A26-Fl; conditions: FP competition with 0.5 nM A26-Fl, 24 h
T7 construct: PPIL1 (UniProtKB Entry Q9Y3C6: residues 1–166); made in house; host or cells: E. coli BL21(DE3)
T7 sequence (Q9Y3C6 1-166): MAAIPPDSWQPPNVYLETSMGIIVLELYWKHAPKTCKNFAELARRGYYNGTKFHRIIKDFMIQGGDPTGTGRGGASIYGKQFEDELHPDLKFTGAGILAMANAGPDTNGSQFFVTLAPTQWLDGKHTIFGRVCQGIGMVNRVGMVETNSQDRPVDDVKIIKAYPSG
Experimental: as §2

CypB = biological target: T8, CypB (Homo sapiens, UniProt P23284); test: Competition anisotropy binding assay with A26-Fl; conditions: FP competition with 0.5 nM A26-Fl, 24 h
T8 construct: PPIB (UniProtKB Entry P23284: residues 34–216); His6 with TEV site (2BT vector leader) (N); made in house; host or cells: E. coli BL21(DE3)
T8 sequence (P23284 34-216): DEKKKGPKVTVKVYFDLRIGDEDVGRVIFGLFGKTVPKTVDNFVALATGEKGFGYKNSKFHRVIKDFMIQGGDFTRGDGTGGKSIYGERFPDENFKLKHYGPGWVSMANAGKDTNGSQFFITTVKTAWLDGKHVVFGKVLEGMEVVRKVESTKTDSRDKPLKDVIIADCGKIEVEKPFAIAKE
Experimental: as §2

CypE K217A [2] = biological target: T2, CypE K217A; test: Competition anisotropy binding assay with A26-Fl
Experimental: as §2

CypD = CypD (Homo sapiens, UniProt P30405); test: Competition anisotropy binding assay with A26-Fl; parameters: PPIF (UniProtKB Entry P30405: residues 45–207); made in house; host or cells: E. coli BL21(DE3); conditions: FP competition with 0.5 nM A26-Fl, 24 h
Chain of CypD (P30405 45-207): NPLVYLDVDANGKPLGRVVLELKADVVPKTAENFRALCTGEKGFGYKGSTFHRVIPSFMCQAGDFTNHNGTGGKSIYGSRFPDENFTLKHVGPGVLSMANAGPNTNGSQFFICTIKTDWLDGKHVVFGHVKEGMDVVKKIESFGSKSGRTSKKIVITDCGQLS
Experimental: as §2

T1 sequence (P30405 45-207 K118E/R124A): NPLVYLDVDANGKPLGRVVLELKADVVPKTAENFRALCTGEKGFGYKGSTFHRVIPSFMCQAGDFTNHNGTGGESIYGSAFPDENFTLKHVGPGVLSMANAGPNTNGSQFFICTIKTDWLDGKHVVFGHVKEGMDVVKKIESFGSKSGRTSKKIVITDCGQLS

Structure (SMILES)	potency improvement on CypD K118E/R124A compared to wild-type CypD (CypD K118E/R124A)	preference for CypD K118E/R124A over PPWD1 (CypD K118E/R124A; prolyl-isomerase IC50)	selectivity for CypD K118E/R124A over CypA (CypD K118E/R124A; prolyl-isomerase IC50)	IC50 (CypD K118E/R124A; prolyl-isomerase inhibition)	Ki (Cyp40)	less potent at inhibiting K217A prolyl-isomerase activity compared to wild-type CypE (CypE K217A [1])	IC50 (CypE K217A [1]; mutant CypE K217A, read-out: Mutant Cyclophilin Prolyl Isomerase Inhibition IC50 Values, CypE K217A)	Ki (CypE K212A)	Ki (CypA)	Ki (CypE K218A)	Ki (PPIL3)	Ki (PPIL1)	Ki (CypB)	less potent at competing A26-Fl from CypE K217A compared to wild-type CypE (CypE K217A [2])	Ki (CypD)
NCCCc1ccc(-c2ccc(C[C@@H]3NC(=O)[C@]4(Cc5ccccc5)CCCN(C4)C(=O)/C=C/C(=O)NCC[C@@H](C(=O)NCCOCCN)NC(=O)Cc4ccccc4CNC3=O)cc2)cc1 [Compound B32]	100 fold	at least 13 fold	> 100 fold	60 nM											
NC(=O)C1CCNC(=O)C=CC(=O)N2CCCC(Cc3ccccc3)(C2)C(=O)NC(Cc2ccc(-c3ccc(C=O)c(B(O)O)c3)cc2)C(=O)NCc2ccccc2CC(=O)N1 (stereo not drawn) [Compound C3A]					> 10000 nM	150 fold	19 nM	98 nM	1800 nM	250 nM	> 10000 nM	1100 nM	5600 nM	40 fold	520 nM
